In publication PMC7395068, “The evolution of strategies to minimise the risk of human drug-induced liver injury (DILI) in drug discovery and development” (Archives of Toxicology, 2020):
Where a name gives a salt, the structure may show the parent alone. Read-outs that look alike come from different tables or passages of the source.

What was measured:
PHH spheroids = settings: In vitro Assay; ref Vorrink 2018; cited from earlier work
human hepatocytes = settings: cited from earlier work
RMPCC's [1] = settings: cited from earlier work
[2] = cited from earlier work
hu-MPCC = settings: cited from earlier work
[3] = cited from earlier work; remark: listed apart in the source
[4] = test system: HepG2 cells, primary human hepatocytes; settings: In vitro Assay; ref Garside 2014; cited from earlier work
[5] = test system: isolated mouse liver mitochondria; settings: In vitro Assay; ref Porceddu 2012; cited from earlier work
RMPCC's [6] = settings: In vitro Assay; ref Khetani 2012; cited from earlier work
[7] = plasma free fraction; cited from earlier work
rBsep [8] = settings: In vitro Assay; ref Dawson 2012; cited from earlier work
HepaRG spheroids = assay: Combined HCI (HCS) and cellular ATP 3D assay in HepaRG spheroids; settings: for AC50 / minimal effective concentration: Homo sapiens; for DILI prediction HepaRG spheroids (HCS-MEC): Microtissue model structural based (HCI), combined HCS and ATP, MEC < 25 × Cmax.tot cut-off
HepG2 cells [9] = settings: cited from earlier work
[10] = Plasma free fraction (fu) and unbound Cmax (Cmax,u); type: in vitro ADME, human; settings: unbound plasma Cmax
Protocol: The prediction of DILI severity was evaluated further using the 3D combined HCI assays using plasma-free fraction. The majority of fu values were obtained from literature, when unavailable in-house prediction was utilised. Unbound plasma Cmax concentrations (Cmax,u) were derived by multiplying total plasma Cmax with the corresponding free fraction (fu) for each compound.

[11] = test system: primary human hepatocytes, NIH3T3 fibroblasts, BSEP, CYP3A4; settings: cited from earlier work
Upcyte human hepatocytes = settings: In vitro Assay; ref Tolosa 2019; cited from earlier work
PHH = settings: In vitro Assay; ref Albrecht 2019; cited from earlier work
[12] = read-out: Human plasma Cmax; total plasma Cmax.tot, median of 9 literature references; cited from earlier work
[13] = ref Chen 2011; cited from earlier work
[14] = test system: THLE-Null and THLE-3A4 cells; settings: In vitro Assay; ref Gustafsson 2014; cited from earlier work
hLiMTs = assay: Combined HCI (HCS) and cellular ATP 3D assay in hLiMTs
Protocol: 3D spheroid models consisting of either primary human hepatocytes with non-parenchymal cells (hLiMT’s) or HepaRG cells (HepaRG spheroids) were assessed for size (MS), oxidative stress (OS), MMP, mitochondrial mass (MM), GSH and cellular ATP content following drug exposure. Fluorescent images are acquired using the confocal mode of an ArrayScan™ XTI HCI reader (ThermoScientific) following which cellular ATP was measured using 3D CellTiter-Glo (Promega).

[15] = test system: THLE or HepG2 cells, isolated mitochondria, BSEP; settings: cited from earlier work
HepG2 = test system: HepG2; parameters: method as in Albrecht 2019; settings: In vitro Assay; ref Albrecht 2019; cited from earlier work
HepG2 cells [16] = settings: In vitro Assay; ref O'Brien 2006; cited from earlier work
rBsep [17] = test system: rBsep; parameters: method as in Dawson 2012; settings: In vitro Assay; ref Dawson 2012; cited from earlier work
[18] = In vitro Assay, ref Khetani 2012
[19] = In vitro Assay, ref Schadt 2015
[20] = Modeled in vitro assays (cytotoxicity, mitochondrial dysfunction, BSEP), ref Aleo et al. 2019

## CNCCc1ccccn1 [betahistine]
PHH spheroids
  hLiMTs ATP <20 x Cmax: -VE
Human hepatocytes; In vitro Assay, ref Xu 2008
  Structural based (HCI): -VE
RMPCC's [1]; [18]
  RMPCC's: -VE
[2]; ref Khetani 2012
  In vivo DILI: +VE
[2]; ref Vorrink 2018
  In vivo DILI: +VE
[2]; ref Xu 2008
  In vivo DILI: +VE
hu-MPCC; [18]
  HMPCC's: -VE

## CCN(CC)CCOc1ccc(C(=C(Cl)c2ccccc2)c2ccccc2)cc1 [clomiphene citrate]
Human hepatocytes; In vitro Assay, ref Xu 2008
  Structural based (HCI): -VE
RMPCC's [1]; [18]
  RMPCC's: -VE
[2]; ref Khetani 2012
  In vivo DILI: +VE
[2]; ref Xu 2008
  In vivo DILI: +VE
hu-MPCC; [18]
  HMPCC's: -VE

## CC(=O)O[C@]1(C(C)=O)CC[C@H]2[C@@H]3C=C(Cl)C4=CC(=O)[C@@H]5C[C@@H]5[C@]4(C)[C@H]3CC[C@@]21C [cyproterone acetate]
Human hepatocytes; In vitro Assay, ref Xu 2008
  Structural based (HCI): -VE
RMPCC's [1]; [18]
  RMPCC's: +VE
[2]; […]
  In vivo DILI: +VE
[2]; ref Khetani 2012
  In vivo DILI: +VE
[2]; ref Xu 2008
  In vivo DILI: +VE
hu-MPCC; [18]
  HMPCC's: +VE

## COc1ccc2c(c1)[C@]13CCCC[C@@H]1[C@H](C2)N(C)CC3 [dextromethorphan]
[3]; ref Chen 2016
  DILI +VE (5-8), DILI -VE (-4): -VE
  DILI severity category: vNo-DILI-Concern
Human hepatocytes; In vitro Assay, ref Xu 2008
  Structural based (HCI): -VE
RMPCC's [1]; [18]
  RMPCC's: -VE
[2]; ref Khetani 2012
  In vivo DILI: -VE
[2]; ref Xu 2008
  In vivo DILI: -VE
hu-MPCC; [18]
  HMPCC's: -VE

## NC(=O)NO [hydroxyurea]
[3]; ref Chen 2016
  DILI +VE (5-8), DILI -VE (-4): +VE
  DILI severity category: vMost-DILI-Concern
Human hepatocytes
  Structural based (HCI): -VE
RMPCC's [1]
  RMPCC's: +VE
[2]; in vivo
  In vivo DILI: +VE
hu-MPCC
  HMPCC's: +VE

## NNC(=O)c1ccncc1 [isoniazid, reference compound]
[4]
  Cluster 1-6 +VE Assay: -VE
[5]
  in vitro data EC2<=1x Cmax: +VE
  in vitro data EC20<=2uM: -VE
RMPCC's [6]
  RMPCC's: -VE
[7]
  fu: 0.970
[3]; human DILI classification, LTKB DILIrank, ref Chen et al. 2016
  DILI severity category (Chen 2016): Most
[3]; human DILI severity, ref Chen et al.
  DILI severity category: Most
[3]; ref Chen 2016
  DILI +VE (5-8), DILI -VE (-4): +VE
  DILI severity category: vMost-DILI-Concern
rBsep [8]
  Inhibition of rBsep cutoff<1& cmax u>.2: -VE
  Inhibition of rBsep cutoff<3: -VE
HepaRG spheroids; HepaRG, ATP endpoint, cut-off <25x Avg Cmax
  HepaRG <25x Avg Cmax ATP: +ve
HepaRG spheroids; HepaRG, ATP endpoint, cut-off <100x Avg Cmaxu
  HepaRG <100x Avg Cmaxu ATP: +ve (<100x Avg Cmaxu)
HepaRG spheroids; HepaRG, HCS endpoints, cut-off <25x Avg Cmax
  HepaRG <25x Avg Cmax HCS: -ve
HepaRG spheroids; HepaRG, HCS endpoints, cut-off <100x Avg Cmaxu
  HepaRG <100x Avg Cmaxu HCS: +ve (<100x Avg Cmaxu)
HepaRG spheroids; HepaRG, all endpoints (ATP and HCS), cut-off <25x Avg Cmax
  HepaRG <25x Avg Cmax All: +ve
HepaRG spheroids; HepaRG, all endpoints, Cmax max used
  HepaRG Cmax max All: +ve
HepaRG spheroids; HepaRG, all endpoints, Cmax min used
  HepaRG Cmax min All: -ve
HepaRG spheroids; HepaRG, all endpoints, cut-off <10 uM
  HepaRG <10 uM All: -ve
HepaRG spheroids; HepaRG, all endpoints, cut-off <100x Avg Cmaxu
  HepaRG <100x Avg Cmaxu All: +ve (<100x Avg Cmaxu)
HepaRG spheroids; HepaRG, read-out: ATP endpoint AC50
  AC50: 3.52 mM
HepaRG spheroids; HepaRG, read-out: ATP endpoint MEC
  minimal effective concentration: 1330 µM
HepaRG spheroids; HepaRG, read-out: HCS endpoint AC50
  AC50: 14 mM
HepaRG spheroids; HepaRG, read-out: HCS endpoint MEC
  minimal effective concentration: 5790 µM
HepaRG spheroids
  DILI prediction HepaRG spheroids (HCS-MEC): +VE (MEC < 25 × Cmax.tot cut-off)
HepaRG spheroids; listed as Isoniazid
  DILI prediction HepaRG spheroids (HCS-MEC): positive
HepG2 cells [9]; In vitro Assay, ref Tolosa 2012
  Structural based (HCI): +VE
HepG2 cells [9]; Structural based (HCI), HepG2, ref Tolosa et al. 2012
  DILI in vitro assay prediction, Tolosa (2012): -VE
[10]
  Human plasma Cmax,u: 74.267 µM
[11]; BSEP & Metabolism based, ref Schadt et al. 2015
  DILI in vitro assay prediction, Schadt (2015): +VE
[11]; [19]
  Cellular toxicity (3T3 cells): -VE
  Combined Assay: +VE
  GSH adduct HML: -VE
  Hepatocyte cellular toxicity: -VE
  MitoTox 3T3: +VE
  hBSEP inhibition: -VE
Upcyte human hepatocytes
  Upcytes multi donor assay 14day data: +VE
Human hepatocytes; In vitro Assay, ref Xu 2008
  Structural based (HCI): -VE
Human hepatocytes; Structural based (HCI), human hepatocytes, ref Xu et al. 2008
  DILI in vitro assay prediction, Xu (2008): -VE
PHH
  Cytotoxicity PHH 48 hrs: +VE
[2]; Chen et al. 2016 or literature alignment, ref Chen et al. 2016
  Assigned DILI category: 3
[2]; […]
  In vivo DILI: +VE
[2]; ref Albrecht 2019
  In vivo DILI: +VE
[2]; ref Aleo 2019
  In vivo DILI: +VE
[2]; ref Dawson 2012
  In vivo DILI: +VE
[2]; ref Garside 2014
  In vivo DILI: +VE
[2]; ref Gustafsson 2014
  In vivo DILI: +VE
[2]; ref Khetani 2012
  In vivo DILI: +VE
[2]; ref Porceddu 2012
  In vivo DILI: +VE
[2]; ref Schadt 2015
  In vivo DILI: +VE
[2]; ref Tolosa 2012
  In vivo DILI: +VE
[2]; ref Tolosa 2019
  In vivo DILI: +VE
[2]; ref Xu 2008
  In vivo DILI: +VE
[12]
  Cmax: 76.6 µM
[13]
  DILI Score (FDA) (1-8): 8
[14]
  THLE-Null: -VE
hLiMTs; Microtissue model structural based (HCI), combined HCS and ATP, MEC < 25 × Cmax.tot cut-off
  DILI prediction hLiMTs (HCS-MEC): -VE
hLiMTs; hLiMTs, ATP endpoint, cut-off <25x Avg Cmax
  hLiMTs <25x Avg Cmax ATP: -ve
hLiMTs; hLiMTs, ATP endpoint, cut-off <100x Avg Cmaxu
  hLiMTs <100x Avg Cmaxu ATP: -ve
hLiMTs; hLiMTs, HCS endpoints, cut-off <25x Avg Cmax
  hLiMTs <25x Avg Cmax HCS: -ve
hLiMTs; hLiMTs, HCS endpoints, cut-off <100x Avg Cmaxu
  hLiMTs <100x Avg Cmaxu HCS: -ve
hLiMTs; hLiMTs, all endpoints (ATP and HCS), cut-off <25x Avg Cmax
  hLiMTs <25x Avg Cmax All: -ve
hLiMTs; hLiMTs, all endpoints, Cmax max used
  hLiMTs Cmax max All: -ve
hLiMTs; hLiMTs, all endpoints, Cmax min used
  hLiMTs Cmax min All: -ve
hLiMTs; hLiMTs, all endpoints, cut-off <10 uM
  hLiMTs <10 uM All: -ve
hLiMTs; hLiMTs, all endpoints, cut-off <100x Avg Cmaxu
  hLiMTs <100x Avg Cmaxu All: -ve
[15]; In vitro Assay, ref Aleo 2019
  Partition Hybrid HRM Score: +VE
  Ro2 Hybrid HRM Score: -VE
[15]; [20]
  Partition Hybrid HRM Score ≥4, Aleo (2019): +VE (Partition Hybrid HRM Score ≥4)
  Partition Hybrid HRM Score ≥8, Aleo (2019): -VE
  Rule of Two hybrid HRM Score ≥3, Aleo (2019): -VE
  Rule of Two hybrid HRM Score ≥8, Aleo (2019): -VE
hu-MPCC; [18]
  HMPCC's: +VE
HepG2
  Cytotoxicity HepG2 48 hrs: +VE

## C#CC1(O)CC[C@H]2[C@@H]3CCC4=CC(=O)CC[C@@H]4[C@H]3CC[C@@]21CC (some centres unmarked) [norgestrel]
Human hepatocytes
  Structural based (HCI): -VE
RMPCC's [1]
  RMPCC's: -VE
[2]; in vivo
  In vivo DILI: +VE
hu-MPCC
  HMPCC's: -VE

## CCCC(CCC)C(=O)O [valproate]
HepG2 cells [16]
  Structural based (HCI): +VE (lowest HCI endpoint IC50 (or in the absence of dose–response < 100 µM) < 30 × total human plasma exposure levels (Cmax.tot))
rBsep [17]
  Inhibition of rBsep cutoff<1& cmax u>.2: -VE
  Inhibition of rBsep cutoff<3: -VE
Upcyte human hepatocytes
  Upcytes multi donor assay 14day data: +VE
